We go through 1 compound from patent publication US4504469A, “Vasotocin derivatives” (priority 1982, dated 1985).

One test relates to rat uterus in vivo. The test can be described thus: In vivo inhibition of oxytocin-induced uterus contractions in rats, compared with Antocin. Conditions: anaesthetized rats, oxytocin infusion i.v., antagonist 0.8-8.0 μg/100 g i.v.; Antocin given the value 1. Here is the method:
Sprague Dawley rats (250 g) in natural estrous were anaesthetized with Inactin (0.5 mg/100 g body weight i.p.). Myometrial activity was recorded by means of a catheter fixed in the uterine cavity and filled with modified Locke's solution. The catheter was connected to a Statham P23d transducer, and contractions were recorded on a Grass polygraph (model 7d). Oxytocin was infused intravenously (0.05 μg/min/100 g body weight). When a regular contraction pattern had been obtained, the antagonist (0.8-8.0 μg/100 g body weight) was administered intravenously in a volume of 0.2 ml. The recorded curve was integrated over 15 min intervals immediately before and after injection of the antagonist. The inhibition of the increase in the magnitude of the uterus contractions caused by oxytocin infusion were compared with the inhibition of the Antocin which was given the value 1.

For the next test, the system named is isolated rat uterus. In kind it is cell-based. Here is the method:
The compounds according to the invention were investigated with regard to uterotonic potency on isolated rat uterus, using oxytocin as standard. The antagonistic properties of the compounds were also evaluated with the aid of this preparation. Also in vivo tests using oxytocin as the agonist were carried out, the results being compared with those obtained with Antocin.
Sprague Dawley rats (body weight approximately 250 g) in natural estrous were selected by vaginal smears. An approximately 20 mm long segment was cut from the middle of a uterine horn and mounted in an organ bath containing 10 ml of a modified Locke's solution of the following composition (mM:NaCl 153, KCl 5.63, CaCl2 0.541, NaHCO3 5.95 and glucose 2.78). The solution was gassed with 5% CO2 in oxygen at 30° C. The uterine contractions were allowed to stabilize for 30 min. Contractions were recorded isometrically at a resting tension of 1.5 g using Grass force transducers (Ft. 03). The antagonistic potency of the analogs was calculated as pA2 values (Rudinger, J. & Krejci, I. Experientia 18, (1962), 585-588). pA2 is a measure of the inhibitory effect of the peptide and was defined by Schild (Schild, H. O., British Journal of Pharmacology, 2, (1947), 189-206) as the negative logarithm of the molar concentration of an antagonist which reduces the effect of a dose of agonist to that of half the dose. The agonistic effects, if any, of the antagonists were investigated by adding to the bath containing the uterus preparation a varying amount of peptide corresponding at most to a concentration of 4 μg per ml.

Another test is described as follows: Antidiuretic effect (AD). Further details: unit not given here.
The nature of test [1]: Pressor effect (effect on the blood pressure). On the set-up: reference not given here.

Each structure is given as a SMILES string. Where a SMILES comes first, the peptide text is derived from it. Bridges are numbered along the chain shown (N, C = ends). [ ]: non-standard residue; d: D form. Orn = NCCC[C@H](N)C(=O)O; Mpa = O=C(O)CCS

Consider `CC[C@H](C)[C@@H]1NC(=O)[C@@H](Cc2c[nH]c3ccccc23)NC(=O)CCSSC[C@@H](C(=O)N2CCC[C@H]2C(=O)N[C@@H](CCCN)C(=O)NCC(N)=O)NC(=O)[C@H](CC(N)=O)NC(=O)[C@H](C(C)C)NC1=O` [Example 14, 1-β-mercaptopropionic acid-2-D-tryptophane-4-valine-8-ornithine vasotocin] ([Mpa][dW]IVNCP[Orn]G-NH2; disulfide 1-6), for which the “Uterus in vivo, compared with Antocin” value with rat uterus in vivo was found to be 17.9. The “Uterus in vitro antagonist pA2” value in the test on isolated rat uterus came to 7.9. Besides, the “AD (antidiuretic effect)” value in the test “Antidiuretic effect (AD)” stood at 0.03. Also, the “Pressor (effect on the blood pressure)” value in test [1] was found to be 0.03.
